Experimental data as given in patent US12565494B2, “Inhibitors of human respiratory syncytial virus and metapneumovirus” (priority 2022, dated 2026).
Where two headings read alike, the source gives them in different places.

Experiments:
hMPV-GFP virus = assay: microbe, parasite or virus in culture; format: cell-based, Human Metapneumovirus; conditions: VERO cells, hMPV-GFP MOI=1.25, 48 hrs, GFP-expressing cells counted
How it was run: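 VERO cells infected with GFP-expressing hMPV at MOI 1.25 and exposed to compound in 10-point 3-fold dilutions (typical final 40,300–2 nM) for 48 h at 37 °C. GFP-positive cells counted by imaging; same-well CellTiter-Glo for cytotoxicity. IC50 and CC50 from 4-parameter logistic fits.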

RSV-A2-GFP virus = assay: microbe, parasite or virus in culture; format: cell-based, Human Respiratory Syncytial Virus; conditions: Calu-1 cells, RSV-A2-GFP MOI=1.2, 96 hrs, GFP-expressing cells counted
How it was run: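 Assay-ready frozen Calu-1 cells (20,000 cells/mL) were infected with RSV-A2-GFP at MOI 1.2 in DMEM with 2% FBS and exposed to a 10-point 3-fold compound dilution for 96 h at 37 °C. GFP-positive cells were counted by imaging, with same-well CellTiter-Glo for cytotoxicity. IC50 and CC50 came from 4-parameter logistic fits.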

[1] = Table II Summary of Activities for hMPV, read-out: RSV EC50
[2] = Table I Summary of Activities for RSV, read-out: RSV EC50
[3] = Vero, 48 h, read-out: RSV EC50, Table II Summary of Activities for hMPV
[4] = human respiratory syncytial virus, Calu-1, 96 h, read-out: RSV EC50, Table I Summary of Activities for RSV

Row | SMILES | EC50 (hMPV-GFP virus; [1]) [nM] | EC50 (RSV-A2-GFP virus; [2]) [nM] | EC50 (hMPV-GFP virus; [3]) [nM] | EC50 (RSV-A2-GFP virus; [4]) [nM]
1 | Cc1nc(-c2ncco2)sc1C(=O)N1C[C@@H]2[C@H](C1)[C@H]2Oc1cc(C(C)(C)N)cc(-n2cc(C3CC3)cn2)n1 [Example 37, ((1R,5S,6s)-6-((4-(2-aminopropan-2-yl)-6-(4-cyclopropyl-1H-pyrazol-1-yl)pyridin-2-yl)oxy)-3-azabicyclo[3.1.0]hexan-3-yl)(4-methyl-2-(oxazol-2-yl)thiazol-5-yl)methanone] | > 100 | < 10 | – | –
2 | Cn1nc(-c2cscn2)cc1C(=O)N1C[C@@H]2[C@H](C1)[C@H]2Oc1cc(C(C)(C)N)cc(-n2cc(C3CC3)cn2)n1 [Example 38, ((1R,5S,6s)-6-((4-(2-aminopropan-2-yl)-6-(4-cyclopropyl-1H-pyrazol-1-yl)pyridin-2-yl)oxy)-3-azabicyclo[3.1.0]hexan-3-yl)(1-methyl-3-(thiazol-4-yl)-1H-pyrazol-5-yl)methanone] | > 100 | < 10 | – | –
3 | Cn1nc(-c2cscn2)cc1C(=O)N1C[C@@H]2[C@H](C1)[C@H]2Oc1cc(C(C)(C)N)cc(N2CCC(C)(C)CC2)n1 [Example 39, ((1R,5S,6s)-6-((4-(2-aminopropan-2-yl)-6-(4,4-dimethylpiperidin-1-yl)pyridin-2-yl)oxy)-3-azabicyclo[3.1.0]hexan-3-yl)(1-methyl-3-(thiazol-4-yl)-1H-pyrazol-5-yl)methanone] | > 100 | < 10 | – | –
4 | Cn1nc(-c2ncco2)cc1C(=O)N1C[C@@H]2[C@H](C1)[C@H]2Oc1cc(C(C)(C)N)cc(N2CCC(C(F)(F)F)CC2)n1 [Example 40, ((1R,5S,6s)-6-((4-(2-aminopropan-2-yl)-6-(4-(trifluoromethyl)piperidin-1-yl)pyridin-2-yl)oxy)-3-azabicyclo[3.1.0]hexan-3-yl)(1-methyl-3-(oxazol-2-yl)-1H-pyrazol-5-yl)methanone] | > 100 | < 10 | – | –
5 | Cn1nc(-c2cscn2)cc1C(=O)N1C[C@@H]2[C@H](C1)[C@H]2Oc1cc(C(C)(C)N)cc(N2CCC(C(F)(F)F)CC2)n1 [Example 41, ((1R,5S,6s)-6-((4-(2-aminopropan-2-yl)-6-(4-(trifluoromethyl)piperidin-1-yl)pyridin-2-yl)oxy)-3-azabicyclo[3.1.0]hexan-3-yl)(1-methyl-3-(thiazol-4-yl)-1H-pyrazol-5-yl)methanone] | > 100 | < 10 | – | –
6 | Cn1nc(-c2cscn2)cc1C(=O)N1C[C@@H]2[C@H](C1)[C@H]2Oc1cc(C(C)(C)N)cc(OCC23CC(C2)C3)n1 [Example 42, ((1R,5S,6s)-6-((4-(2-aminopropan-2-yl)-6-(bicyclo[1.1.1]pentan-1-ylmethoxy)pyridin-2-yl)oxy)-3-azabicyclo[3.1.0]hexan-3-yl)(1-methyl-3-(thiazol-4-yl)-1H-pyrazol-5-yl)methanone] | > 100 | < 10 | – | –
7 | Cn1nc(-c2cscn2)cc1C(=O)N1C[C@@H]2[C@H](C1)[C@H]2Oc1cc(C(N)=O)cc(-c2ccc(F)cc2)n1 [Example 47, 2-(4-fluorophenyl)-6-(((1R,5S,6s)-3-(1-methyl-3-(thiazol-4-yl)-1H-pyrazole-5-carbonyl)-3-azabicyclo[3.1.0]hexan-6-yl)oxy)isonicotinamide] | – | – | > 100 | < 10
8 | Cn1nc(-c2cscn2)cc1C(=O)N1C[C@@H]2[C@H](C1)[C@H]2Oc1cc(C(C)(C)C(N)=O)cc(-c2ccc(F)cc2)n1 [Example 48, 2-(2-(4-fluorophenyl)-6-(((1R,5S,6s)-3-(1-methyl-3-(thiazol-4-yl)-1H-pyrazole-5-carbonyl)-3-azabicyclo[3.1.0]hexan-6-yl)oxy)pyridin-4-yl)-2-methylpropanamide] | – | – | > 100 | < 10
9 | Cn1nc(-c2cscn2)cc1C(=O)N1C[C@@H]2[C@H](C1)[C@H]2Oc1cc(C2(N)CCC2)cc(-c2ccc(F)cc2)n1 [Example 52, ((1R,5S,6s)-6-((4-(1-aminocyclobutyl)-6-(4-fluorophenyl)pyridin-2-yl)oxy)-3-azabicyclo[3.1.0]hexan-3-yl)(1-methyl-3-(thiazol-4-yl)-1H-pyrazol-5-yl)methanone] | > 100 | < 10 | – | –
10 | Cn1nc(-c2cscn2)cc1C(=O)N1C[C@@H]2[C@H](C1)[C@H]2Oc1cc(C2(N)CCCC2)cc(-c2ccc(F)cc2)n1 [Example 53, ((1R,5S,6s)-6-((4-(1-aminocyclopentyl)-6-(4-fluorophenyl)pyridin-2-yl)oxy)-3-azabicyclo[3.1.0]hexan-3-yl)(1-methyl-3-(thiazol-4-yl)-1H-pyrazol-5-yl)methanone] | – | – | > 100 | < 10
11 | Cn1nc(-c2cscn2)cc1C(=O)N1C[C@@H]2[C@H](C1)[C@H]2Oc1cc(C(C)(C)CN)cc(-c2ccc(F)cc2)n1 [Example 54, ((1R,5S,6s)-6-((4-(1-amino-2-methylpropan-2-yl)-6-(4-fluorophenyl)pyridin-2-yl)oxy)-3-azabicyclo[3.1.0]hexan-3-yl)(1-methyl-3-(thiazol-4-yl)-1H-pyrazol-5-yl)methanone] | – | – | 10 to 100 | < 10
12 | Cn1nc(-c2cscn2)cc1C(=O)N1C[C@@H]2[C@H](C1)[C@H]2Oc1cc(-c2ccc(F)cc2)cc(C(C)(C)N)n1 [Example 59, ((1R,5S,6s)-6-((6-(2-aminopropan-2-yl)-4-(4-fluorophenyl)pyridin-2-yl)oxy)-3-azabicyclo[3.1.0]hexan-3-yl)(1-methyl-3-(thiazol-4-yl)-1H-pyrazol-5-yl)methanone] | – | – | > 100 | < 10
13 | Cn1nc(-c2ncco2)cc1C(=O)N1C[C@@H]2[C@H](C1)[C@H]2Oc1cc(-c2ccc(F)cc2)cc(C(C)(C)N)n1 [Example 60, ((1R,5S,6s)-6-((6-(2-aminopropan-2-yl)-4-(4-fluorophenyl)pyridin-2-yl)oxy)-3-azabicyclo[3.1.0]hexan-3-yl)(1-methyl-3-(oxazol-2-yl)-1H-pyrazol-5-yl)methanone] | > 100 | < 10 | – | –
14 | Cn1nc(-c2cscn2)cc1C(=O)N1C[C@@H]2[C@H](C1)[C@H]2Oc1cc(C(C)(C)N)cc(C2(C)CCCC2)n1 [Example 63, ((1R,5S,6s)-6-((4-(2-aminopropan-2-yl)-6-(1-methylcyclopentyl)pyridin-2-yl)oxy)-3-azabicyclo[3.1.0]hexan-3-yl)(1-methyl-3-(thiazol-4-yl)-1H-pyrazol-5-yl)methanone] | – | – | > 100 | < 10
15 | Cn1nc(-c2ccon2)cc1C(=O)N1C[C@@H]2[C@H](C1)[C@H]2Oc1cc(C(C)(C)N)cc(N2CCC(C(F)(F)F)CC2)n1 [Example 64, ((1R,5S,6s)-6-((4-(2-aminopropan-2-yl)-6-(4-(trifluoromethyl)piperidin-1-yl)pyridin-2-yl)oxy)-3-azabicyclo[3.1.0]hexan-3-yl)(3-(isoxazol-3-yl)-1-methyl-1H-pyrazol-5-yl)methanone] | – | – | > 100 | < 10
16 | Cn1nc(-c2ncco2)cc1C(=O)N1C[C@@H]2[C@H](C1)[C@H]2Oc1cc(C(C)(C)N)cc(N2CCC(C)(C)CC2)n1 [Example 65, ((1R,5S,6s)-6-((4-(2-aminopropan-2-yl)-6-(4,4-dimethylpiperidin-1-yl)pyridin-2-yl)oxy)-3-azabicyclo[3.1.0]hexan-3-yl)(1-methyl-3-(oxazol-2-yl)-1H-pyrazol-5-yl)methanone] | – | – | > 100 | < 10
17 | Cn1nc(-n2cccn2)cc1C(=O)N1C[C@@H]2[C@H](C1)[C@H]2Oc1cc(C(C)(C)N)cc(-c2ccc(F)cc2)n1 [Example 67, ((1R,5S,6s)-6-((4-(2-aminopropan-2-yl)-6-(4-fluorophenyl)pyridin-2-yl)oxy)-3-azabicyclo[3.1.0]hexan-3-yl)(1′-methyl-1′H-[1,3′-bipyrazol]-5′-yl)methanone] | – | – | > 100 | < 10
18 | Cn1nc(-n2nccn2)cc1C(=O)N1C[C@@H]2[C@H](C1)[C@H]2Oc1cc(C(C)(C)N)cc(-c2ccc(F)cc2)n1 [Example 68, ((1R,5S,6s)-6-((4-(2-aminopropan-2-yl)-6-(4-fluorophenyl)pyridin-2-yl)oxy)-3-azabicyclo[3.1.0]hexan-3-yl)(1-methyl-3-(2H-1,2,3-triazol-2-yl)-1H-pyrazol-5-yl)methanone] | 10 to 100 | < 10 | – | –
